pEC50: −log10 of the molar value. Counter-ions that a name gives are not always drawn.
Legend:
[1] = molecular target: T1, GPR40 (Homo sapiens, UniProt O14842); assay: IP1 accumulation assay in HEK293 cells stably expressing GPR40; type: cell-based; conditions: HEK293 cells stably expressing GPR40, 2 hours at 37° C.
T1 construct: expressed in transfected cells
Protocol: IP1 accumulation assay was used to evaluate the potency of compounds. HEK293 cells stably expressing GPR40 were cultured in 5% CO2 incubator (ThermoFisher) in maintenance media (Dulbecco's modified Eagle's medium with 4.5 g/L of glucose, 10% fetal bovine serum, 100 μg/mL Hygromycin, and Penicillin (100 U/mL)/Streptomycin (100 μg/mL)) till 100% confluency. Cells were harvested freshly, spun down at 300× g for 5 min, and resuspended in pre-warmed 1× stimulant buffer from Cisbio IP-One HTRF Detection kit (Cisbio). Cell density was adjusted to 2.0×10^6 cells/mL. DMSO was used as blank control and AMG-1638 (CAS #: 1142214-62-7) as positive control. Compounds were prepared at 10 mM in DMSO and 5 nL of 3× serially diluted compounds (10 concentrations) were added to each well of the 384-LDV assay plate (Corning) by using ECHO 550 (Labcyte). Five μL of cells in suspension were transferred into each well by using Multidrop Combi Reagent Dispenser (ThermoFisher). Assay plate was then sealed and incubated at 37° C. for 2 hours. IP-d2 reagent and anti-IP1 reagent were prepared following the manual (Cisbio). Five μL of IP1-d2 and then 5 μL of anti-IP1 antibody was added to each well sequentially. Assay plate was incubated at room temperature for 60 min and then read at 665 nm/615 nm on an Envision plate reader (PerkinElmer). The ratio of values obtained at 665 nm and 615 nm was used for calculation of IP1 accumulation: % Effect=(Ratiosample−Ratioblank)/(RatioAMG-1638−Ratioblank)×100. Dose curve was fitted and EC50 of each compound was calculated by using XLFit.

[2] = Pharmacokinetics in mice (IV and PO), plasma LC-MS/MS; type: in vivo, Male ICR (CD-1) mice
Protocol: Male ICR (CD-1) mice at around 4-6 weeks with body weight of around 25 grams (n=3) were purchased from VT-River (Zhejiang, China). After 1-week acclimation, animals were dosed with exemplary compounds intravenously at 1 mpk or orally at 10 mpk (0.5% methylcellulose in PBS as vehicle for both routes of administration). Blood samples (30 μL) were collected via saphenous vein puncture at 5 (IV only), 15, 30, 60, 120, 240, 480, and 1440 min post dose. The blood samples were saved in 0.5 M K2EDTA coated tubes and centrifuged at 4,600 rpm at 4° C. for 5 min. Plasma samples were collected and stored in −80° C. till PK analysis.
Take 10 μL of K2EDTA-treated plasma samples of CD-1 mice, add 200 μL of precipitation solution with internal standard (5 ng/mL Terfenadine in MeOH/ACN), mix well by vortexing for 1 min at room temperature followed by centrifuge at 4° C. and 4000 rpm for 15 min. Save the supernatant as injection for LC-MS/MS quantification of exemplary compounds in plasma samples of mice.
Establish a standard curve before and after each analytical batch, accompanied by quality controls of low, medium, and high concentrations. The number of quality control samples is not less than 6 and should be equal to or more than the number of samples of each batch, and interspersed in sample measurement. Standard curve and quality control samples of each batch must meet the acceptance criteria.

[3] = male, ICR (CD-1), mouse, plasma, 10 mg/kg, PO (10 mpk)

T1 sequence (O14842 whole entry): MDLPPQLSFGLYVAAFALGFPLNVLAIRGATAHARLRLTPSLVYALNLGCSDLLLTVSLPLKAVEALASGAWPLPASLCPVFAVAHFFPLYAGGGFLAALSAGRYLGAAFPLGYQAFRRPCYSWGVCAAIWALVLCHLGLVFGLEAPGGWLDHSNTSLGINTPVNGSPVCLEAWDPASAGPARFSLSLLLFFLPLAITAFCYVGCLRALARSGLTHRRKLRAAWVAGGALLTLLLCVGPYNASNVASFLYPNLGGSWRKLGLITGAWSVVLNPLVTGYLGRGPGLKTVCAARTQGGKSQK

Compound: COc1ccc(C(=O)N(CC(C)(C)CCCCCCCCCCCCCCCCCC(=O)NCCC[N+](C)(CC(=O)NCCN)CC(=O)NCCN)c2cccc(C)n2)c(N2CCC(COc3cc([C@@H](CC(=O)O)C4CC4)ccn3)CC2)c1 [Example 12]
- pEC50 [1]: 9.77
- Cl ([2]; IV (1 mpk)): 0.15 ml/mL/kg
- AUC ([2]; male, ICR (CD-1), mouse, plasma, 1 mg/kg, IV (1 mpk)): 33.9 µM·h
- half-life ([2]; male, ICR (CD-1), mouse, plasma, 1 mg/kg, IV (1 mpk), read-out: T½ (converted)): 8.9 h
- Vd ([2]; male, ICR (CD-1), mouse, plasma, 1 mg/kg, IV (1 mpk), read-out: Vss): 0.1 L/kg
- Cmax [2, 3]: 80.7 nM
- Tmax [2, 3]: 5.3 h
- bioavailability ([2]; male, ICR (CD-1), mouse, plasma, 10 mg/kg, PO (10 mpk), oral bioavailability): 0.17%

Compound: COc1ccc(C(=O)N(CC(C)(C)CCCCCCCCCCCCCCCCCC(=O)NCCCC[N+]23CCN(CC2)CC3)c2cccc(C)n2)c(N2CCC(COc3cc([C@@H](CC(=O)O)C4CC4)ccn3)CC2)c1 [Example 28]
- pEC50 [1]: 9.31

Compound: COc1ccc(C(=O)N(CC(C)(C)CCCCCCCCCCCCCCCCCC(=O)NCCC[N+](C)(CC(=O)[O-])CC(=O)O)c2cccc(C)n2)c(N2CCC(COc3cc([C@@H](CC(=O)O)C4CC4)ccn3)CC2)c1 (some centres unmarked) [Example 35]
- pEC50 [1]: 9.20

Compound: C[C@H](C(=O)O)[C@H](c1ccc2c(c1)O[C@@H](C1CCN(Cc3cc(CCCCCCCCCCCCCCCCCCCC(=O)NCCC[N+](C)(CC(=O)NCCN)CC(=O)NCCN)ccc3OC(F)(F)F)CC1)CC2)C1CC1 [Example 20]
- pEC50 [1]: 8.45

Compound: CC[N+](CC)(CC)CCCCCCCCCCCCCCCCCCC(C)(C)CN(C(=O)c1ccc(OC)cc1N1CCC(COc2cc([C@@H](CC(=O)O)C3CC3)ccn2)CC1)c1cccc(C)n1 [Example 26]
- pEC50 [1]: 9.44

Compound: COc1ccc(C(=O)N(CC(C)(C)CCCCCCCCCCCCCCCCCC[N+]2(C)CCN(C)CC2)c2cccc(C)n2)c(N2CCC(COc3cc([C@@H](CC(=O)O)C4CC4)ccn3)CC2)c1 [Example 24]
- pEC50 [1]: 8.94

Compound: COc1ccc(C(=O)N(CC(C)(C)CCCCCCCCCCCCCCCCCCCC(=O)NCCCN(CC(=O)NCCN)CC(=O)NCCN)c2cccc(C)n2)c(N2CCC(COc3cc([C@@H](CC(=O)O)C4CC4)ccn3)CC2)c1 [Example 5]
- pEC50 [1]: 8.76

Compound: COc1ccc(C(=O)N(CC(C)(C)CCCCCCCCCCCCCCCCCCCC(=O)NCCN(CCC(=O)NCCN)CCC(=O)NCCN)c2cccc(C)n2)c(N2CCC(COc3cc([C@@H](CC(=O)O)C4CC4)ccn3)CC2)c1 [Example 1]
- pEC50 [1]: 8.91

Compound: COc1ccc(C(=O)N(CC(C)(C)CCCCCCCCCCCCCCCCCC[N+](C)(C)C)c2cccc(C)n2)c(N2CCC(COc3cc([C@@H](CC(=O)O)C4CC4)ccn3)CC2)c1 [Example 25]
- pEC50 [1]: 9.35

Compound: COc1ccc(C(=O)N(CC(C)(C)CCCCCCCCCCCCCCCCCCCC(=O)NCCC[N+](C)(CC(=O)NCCN)CC(=O)NCCN)c2cccc(C)n2)c(N2CCC(COc3cc([C@@H](CC(=O)O)C4CC4)ccn3)CC2)c1 [Example 6]
- pEC50 [1]: 9.08

Compound: COc1ccc(C(=O)N(CC(C)(C)CCCCCCCCCCCCCCCCCCCCCC(=O)NCC[N+](C)(CC(=O)NCCN)CC(=O)NCCN)c2cccc(C)n2)c(N2CCC(COc3cc([C@@H](CC(=O)O)C4CC4)ccn3)CC2)c1 [Example 11, (S)-2-((2-aminoethyl)amino)-N-(2-((2-aminoethyl)amino)-2-oxoethyl)-N-(2-(24-(2-(4-(((4-(2-carboxy-1-cyclopropylethyl)pyridin-2-yl)oxy)methyl)piperidin-1-yl)-4-methoxy-N-(6-methylpyridin-2-yl)benzamido)-23,23-dimethyltetracosanamido)ethyl)-N-methyl-2-oxoethanaminium trifluoroacetate]
- pEC50 [1]: 8.87

Compound: COc1ccc(C(=O)N(CC(C)(C)CCCCCCCCCCCCCCCCCCCC(=O)NCCC[N+](C)(C)CC(=O)NCCN)c2cccc(C)n2)c(N2CCC(COc3cc([C@@H](CC(=O)O)C4CC4)ccn3)CC2)c1 [Example 16]
- pEC50 [1]: 9.32

Compound: COc1ccc(C(=O)N(CC(C)(C)CCn2cc(CCCCCCCCCCCCCCCCCC(=O)O)nn2)c2cccc(C)n2)c(N2CCC(COc3cc([C@@H](CC(=O)O)C4CC4)ccn3)CC2)c1 [Example 33]
- pEC50 [1]: < 6.82

Compound: COc1ccc(C(=O)N(CC(C)(C)CCCCCCCCCCCCCCCCCCCC(=O)NCCCN(C)CC(=O)NCCN)c2cccc(C)n2)c(N2CCC(COc3cc([C@@H](CC(=O)O)C4CC4)ccn3)CC2)c1 [Example 15]
- pEC50 [1]: 9.17

Compound: COc1ccc(C(=O)N(CC(C)(C)CCCCCCCCCCCCCCCCCCCC(=O)NCC[N+](C)(CCC(=O)NCCN)CCC(=O)NCCN)c2cccc(C)n2)c(N2CCC(COc3cc([C@@H](CC(=O)O)C4CC4)ccn3)CC2)c1 [Example 3]
- pEC50 [1]: 8.75

Compound: COc1ccc(C(=O)N(CC(C)(C)CCCCCCCCCCCCCCCCCCCC(=O)NCCN(CC(=O)NCCN)CC(=O)NCCN)c2cccc(C)n2)c(N2CCC(COc3cc([C@@H](CC(=O)O)C4CC4)ccn3)CC2)c1 [Example 2]
- pEC50 [1]: 8.70

Compound: COc1ccc(C(=O)N(CC(C)(C)CCCCCCCCCCCCCCCCCCNC(=O)C[N+]23CCN(CC2)CC3)c2cccc(C)n2)c(N2CCC(COc3cc([C@@H](CC(=O)O)C4CC4)ccn3)CC2)c1 [Example 23, (S)-1-(2-((20-(2-(4-(((4-(2-carboxy-1-cyclopropylethyl)pyridin-2-yl)oxy)methyl)piperidin-1-yl)-4-methoxy-N-(6-methylpyridin-2-yl)benzamido)-19,19-dimethylicosyl)amino)-2-oxoethyl)-1,4-diazabicyclo[2.2.2]octan-1-ium trifluoroacetate]
- pEC50 [1]: 8.55

Compound: COc1ccc(C(=O)N(CC(C)(C)CCCCCCCCCCCCCCCCCCCC(=O)NCC[N+](C)(CCCC(=O)NCCN)CCCC(=O)NCCN)c2cccc(C)n2)c(N2CCC(COc3cc([C@@H](CC(=O)O)C4CC4)ccn3)CC2)c1 [Example 9]
- pEC50 [1]: 9.46

Compound: COc1ccc(C(=O)N(CC(C)(C)CCCCCCCCCCCCCCCCCC(=O)NCCC[N+](C)(C)CCCS(=O)(=O)[O-])c2cccc(C)n2)c(N2CCC(COc3cc([C@@H](CC(=O)O)C4CC4)ccn3)CC2)c1 [Example 36]
- pEC50 [1]: 9.11

Compound: COc1ccc(C(=O)N(CC(C)(C)CCCCCCCCCCCCCCCCCC(=O)NCCCC[N+](C)(C)C)c2cccc(C)n2)c(N2CCC(COc3cc([C@@H](CC(=O)O)C4CC4)ccn3)CC2)c1 [Example 29]
- pEC50 [1]: 9.49

Compound: COc1ccc(C(=O)N(CC(C)(C)CCCCCCCCCCCCCCCCCCCCC(=O)NCC[N+](C)(CC(=O)NCCN)CC(=O)NCCN)c2cccc(C)n2)c(N2CCC(COc3cc([C@@H](CC(=O)O)C4CC4)ccn3)CC2)c1 [Example 10]
- pEC50 [1]: 8.44

Compound: COc1ccc(C(=O)N(CC(C)(C)CCCCCCCCCCCCCCCCCC(=O)NCC[N+](C)(CC(=O)NCCN)CC(=O)NCCN)c2cccc(C)n2)c(N2CCC(COc3cc([C@@H](CC(=O)O)C4CC4)ccn3)CC2)c1 [Example 7]
- pEC50 [1]: 9.28

Compound: CCCCNC(=O)CCCCCCCCCCCCCCCCCC(C)(C)CN(C(=O)c1ccc(OC)cc1N1CCC(COc2cc([C@@H](CC(=O)O)C3CC3)ccn2)CC1)c1cccc(C)n1 [Example 32]
- pEC50 [1]: 6.41

Compound: CC[N+](CC)(CC)CCCCNC(=O)CCCCCCCCCCCCCCCCCC(C)(C)CN(C(=O)c1ccc(OC)cc1N1CCC(COc2cc([C@@H](CC(=O)O)C3CC3)ccn2)CC1)c1cccc(C)n1 [Example 30]
- pEC50 [1]: 9.37

Compound: COc1ccc(C(=O)N(CC(C)(C)CCn2cc(CCCCCCCCCCCCCCCCCC(=O)NCCNC(=O)C(CCCCN(CCCN)CCCN)NCCCN)nn2)c2cccc(C)n2)c(N2CCC(COc3cc([C@@H](CC(=O)O)C4CC4)ccn3)CC2)c1 (some centres unmarked) [Example 27]
- pEC50 [1]: 9.15

Compound: COc1ccc(C(=O)N(CC(C)(C)CCCCCCCCCCCCCCCCCC[N+]23CCN(CC2)CC3)c2cccc(C)n2)c(N2CCC(COc3cc([C@@H](CC(=O)O)C4CC4)ccn3)CC2)c1 [Example 22]
- pEC50 [1]: 9.44

Compound: COc1ccc(C(=O)N(CC(C)(C)CCCCCCCCCCCCCCCCCCCC(=O)NCCN(CCCC(=O)NCCN)CCCC(=O)NCCN)c2cccc(C)n2)c(N2CCC(COc3cc([C@@H](CC(=O)O)C4CC4)ccn3)CC2)c1 [Example 8]
- pEC50 [1]: 9.55

Compound: COc1ccc(C(=O)N(CC(C)(C)CCCCCCCCCCCCCCCCCC(=O)NCc2ccccc2)c2cccc(C)n2)c(N2CCC(COc3cc([C@@H](CC(=O)O)C4CC4)ccn3)CC2)c1 [Example 31]
- pEC50 [1]: 6.79

From patent US20250073338A1, “CONJUGATE COMPOUNDS AND COMPOSITIONS” (REZUBIO PHARMACEUTICALS CO., LTD, priority 2023, published 2025)
